Data taken from PMC5531531, “A synthetic cationic antimicrobial peptide inhibits inflammatory response and the NLRP3 inflammasome by neutralizing LPS and ATP” (PLoS ONE, 2017).
No end group written: not given here.

Tested on: LPS-induced NO generation in RAW264.7 cells
Assay: NO inhibitory assay (Griess reaction), LPS-activated RAW 264.7
Assay type: cell-based, mouse
Settings: E. coli LPS 0.1 μg/ml, 24 h, Griess reaction; mean of triplicate wells from at least three experiments
Description: RAW 264.7 cells (2 × 10^5 in 0.5 ml of medium) were seeded in 24-well plates and then incubated with or without LPS (0.1 μg/ml) in the absence or presence of AMP for 24 h. The effects of AMP on NO production were measured indirectly by analyzing nitrite levels using the Griess reaction as described in detail previously.

Sequence | ED50, effective dose of AMPs that inhibits 50% of LPS-induced NO generation in RAW264.7 cells [µM]
GAKALTKAATAFTKFYKTIW [GW-A4] | 4
GATYAKKIIKTITKIATTAW [GW-A5] | >8
GIGKFLHSAKKWGKAFVGEIMNS [Peptide M2a, Magainin 2a, reference compound] | >8
GAKYAKYIYNFYKYIAKYIW [GW-A1] | >8
GANAAKKLATFAKKIFTAYW [GW-M1] | 4
GWGSFFKKAAHVGKHVGKAALTHYL [Ple, Pleurocidin, reference compound] | >8
GYKYYNKIYNYLNKYLKYAW [GW-H0] | 5
GYNYAKKLANLAKKFANALW [GW-H1] | >8
GANLAKKFYTYINKFINYAW [GW-Q3] | 7
GANAAKKFATIAKKFINYLW [GW-Q4] | >8
GLTFLKKILNFAKKIYTAIW [GW-H3] | 4
GIKIAKKAITIAKKIAKIYW [GW-Q6] | 4
